ChEMBL document CHEMBL3045188, “Synthesis and antibacterial, antimycobacterial and docking studies of novel N-piperazinyl fluoroquinolones” (Med Chem Res, 2013)
≈ marks a conversion by molar mass, not a printed value. Calls of active or inactive are those of the source. The rule behind the calls is not given here.

Tests used:
Corynebacterium = assay: Antibacterial activity against Corynebacterium ATCC 29355 assessed as growth inhibition after 18 hr by broth microdilution method; assay type: functional; conditions: ATCC 29355, 18 h
[1] = tested on: Mycobacterium tuberculosis; assay: Antimycobacterial activity against Mycobacterium tuberculosis H37Rv assessed as growth inhibition after 21 days by broth dilution assay; assay type: functional
Pseudomonas aeruginosa = assay: Antibacterial activity against Pseudomonas aeruginosa ATCC 25619 assessed as growth inhibition after 18 hr by broth microdilution method; assay type: functional; conditions: ATCC 25619, 18 h
Escherichia coli = assay: Antibacterial activity against Escherichia coli MTCC 1089 assessed as growth inhibition after 18 hr by broth microdilution method; assay type: functional; conditions: MTCC 1089, 18 h
Staphylococcus aureus = assay: Antibacterial activity against Staphylococcus aureus ATCC 25365 assessed as growth inhibition after 18 hr by broth microdilution method; assay type: functional; conditions: ATCC 25365, 18 h
Vero = assay: Cytotoxicity against Chlorocebus aethiops (African green monkey) Vero cells assessed as inhibition of cell viability after 96 hr by MTT assay; assay type: cell-based; conditions: Chlorocebus sabaeus
[2] = Selectivity index, ratio of IC50 for african green monkey Vero cells to MIC for Mycobacterium tuberculosis H37Rv; assay type: toxicity, cell-based; conditions: read-out: Selectivity Index

| SMILES | MIC (Corynebacterium) | MIC ([1]; 504 h) | MIC (Pseudomonas aeruginosa) | MIC (Escherichia coli) | MIC (Staphylococcus aureus) | IC50 (Vero) | selectivity ratio [2] | MIC [1] |
| --- | --- | --- | --- | --- | --- | --- | --- | --- |
| CCn1cc(C(=O)O)c(=O)c2cc(F)c(N3CCN(c4nnc(SCC(=O)c5ccc([N+](=O)[O-])cc5)s4)CC3)cc21 | 1 mg/L (≈ 1.67 µM) | 1 mg/L (≈ 1.67 µM) | > 64 mg/L | 16 mg/L (≈ 26.7 µM) | 2 mg/L (≈ 3.34 µM) | > 10.2 mg/L | > 10.2 | – |
| CCn1cc(C(=O)O)c(=O)c2cc(F)c(N3CCN(c4nnc(SCC(=O)c5ccc(Br)cc5)s4)CC3)cc21 | 4 mg/L (≈ 6.32 µM) | 2.5 mg/L (≈ 3.95 µM) | > 64 mg/L | 32 mg/L (≈ 50.6 µM) | 8 mg/L (≈ 12.6 µM) | 5 mg/L (≈ 7.9 µM) | 2 | – |
| O=C(CSc1nnc(N2CCN(c3cc4c(cc3F)c(=O)c(C(=O)O)cn4C3CC3)CC2)s1)c1ccccc1 | 16 mg/L (≈ 28.3 µM) | – | > 64 mg/L | 32 mg/L (≈ 56.6 µM) | 16 mg/L (≈ 28.3 µM) | – | – | inactive |
| CCn1cc(C(=O)O)c(=O)c2cc(F)c(N3CCN(c4nnc(SCC(=O)c5ccc(C)cc5)s4)CC3)cc21 | 4 mg/L (≈ 7.05 µM) | – | > 64 mg/L | > 64 mg/L | 8 mg/L (≈ 14.1 µM) | – | – | inactive |
| CCn1cc(C(=O)O)c(=O)c2cc(F)c(N3CCNCC3)cc21 [NORFLOXACIN] | 2 mg/L (≈ 6.26 µM) | – | 4 mg/L (≈ 12.5 µM) | 2 mg/L (≈ 6.26 µM) | 2 mg/L (≈ 6.26 µM) | – | – | – |
| O=C(CSc1nnc(N2CCN(c3cc4c(cc3F)c(=O)c(C(=O)O)cn4C3CC3)CC2)s1)c1ccc(Cl)cc1 | 2 mg/L (≈ 3.33 µM) | 1 mg/L (≈ 1.67 µM) | > 64 mg/L | 16 mg/L (≈ 26.7 µM) | 4 mg/L (≈ 6.67 µM) | 3 mg/L (≈ 5 µM) | 3 | – |
| Cc1ccc(C(=O)CSc2nnc(N3CCN(c4cc5c(cc4F)c(=O)c(C(=O)O)cn5C4CC4)CC3)s2)cc1 | 4 mg/L (≈ 6.9 µM) | – | > 64 mg/L | 16 mg/L (≈ 27.6 µM) | 8 mg/L (≈ 13.8 µM) | – | – | inactive |
| O=C(CSc1nnc(N2CCN(c3cc4c(cc3F)c(=O)c(C(=O)O)cn4C3CC3)CC2)s1)c1ccc([N+](=O)[O-])cc1 | 0.5 mg/L (≈ 0.819 µM) | 0.5 mg/L (≈ 0.819 µM) | > 64 mg/L | 32 mg/L (≈ 52.4 µM) | 1 mg/L (≈ 1.64 µM) | > 6.1 mg/L | > 12.2 | – |
| CCn1cc(C(=O)O)c(=O)c2cc(F)c(N3CCN(c4nnc(SCC(=O)c5ccccc5)s4)CC3)cc21 | 16 mg/L (≈ 28.9 µM) | – | > 64 mg/L | > 64 mg/L | 32 mg/L (≈ 57.8 µM) | – | – | inactive |
| CCn1cc(C(=O)O)c(=O)c2cc(F)c(N3CCN(c4nnc(SCC(=O)c5ccc(F)cc5)s4)CC3)cc21 | 2 mg/L (≈ 3.5 µM) | 5 mg/L (≈ 8.75 µM) | 32 mg/L (≈ 56 µM) | > 64 mg/L | 4 mg/L (≈ 7 µM) | – | – | – |
| CO[C@H]1/C=C/O[C@@]2(C)Oc3c(C)c(O)c4c(O)c(c(/C=N/N5CCN(C)CC5)c(O)c4c3C2=O)NC(=O)/C(C)=C\C=C\[C@H](C)[C@H](O)[C@@H](C)[C@@H](O)[C@@H](C)[C@H](OC(C)=O)[C@@H]1C [RIFAMPIN] | – | 1 mg/L (≈ 1.22 µM) | – | – | – | > 10 mg/L | > 10 | – |
| O=C(CSc1nnc(N2CCN(c3cc4c(cc3F)c(=O)c(C(=O)O)cn4C3CC3)CC2)s1)c1ccc(F)cc1 | 4 mg/L (≈ 6.85 µM) | 5 mg/L (≈ 8.57 µM) | 32 mg/L (≈ 54.8 µM) | 16 mg/L (≈ 27.4 µM) | 8 mg/L (≈ 13.7 µM) | – | – | – |
| NNC(=O)c1ccncc1 [ISONIAZID] | – | 1.5 mg/L (≈ 10.9 µM) | – | – | – | > 12 mg/L | – | – |
| O=C(CSc1nnc(N2CCN(c3cc4c(cc3F)c(=O)c(C(=O)O)cn4C3CC3)CC2)s1)c1ccc(Br)cc1 | 4 mg/L (≈ 6.21 µM) | 2 mg/L (≈ 3.1 µM) | > 64 mg/L | 16 mg/L (≈ 24.8 µM) | 8 mg/L (≈ 12.4 µM) | 6 mg/L (≈ 9.31 µM) | 3 | – |
| COc1ccc(C(=O)CSc2nnc(N3CCN(c4cc5c(cc4F)c(=O)c(C(=O)O)cn5C4CC4)CC3)s2)cc1 | 1 mg/L (≈ 1.68 µM) | 10 mg/L (≈ 16.8 µM) | > 64 mg/L | 32 mg/L (≈ 53.7 µM) | 2 mg/L (≈ 3.36 µM) | – | – | – |
| O=C(O)c1cn(C2CC2)c2cc(N3CCNCC3)c(F)cc2c1=O [CIPROFLOXACIN] | – | – | 4 mg/L (≈ 12.1 µM) | – | 2 mg/L (≈ 6.04 µM) | – | – | – |
| CCn1cc(C(=O)O)c(=O)c2cc(F)c(N3CCN(c4nnc(SCC(=O)c5ccc(Cl)cc5)s4)CC3)cc21 | 2 mg/L (≈ 3.4 µM) | 1.5 mg/L (≈ 2.55 µM) | > 64 mg/L | 32 mg/L (≈ 54.4 µM) | 4 mg/L (≈ 6.8 µM) | 4 mg/L (≈ 6.8 µM) | 2.67 | – |
| CCn1cc(C(=O)O)c(=O)c2cc(F)c(N3CCN(c4nnc(SCC(=O)c5ccc(OC)cc5)s4)CC3)cc21 | 1 mg/L (≈ 1.71 µM) | 10 mg/L (≈ 17.1 µM) | > 64 mg/L | > 64 mg/L | 2 mg/L (≈ 3.43 µM) | – | – | – |
